Calls of active or inactive are those of the source. The rule behind the calls is not given here.
Assays:
CNE = assay: Cytotoxicity against human CNE1 cells assessed as reduction in cell viability after 3 days by MTT assay; format: functional, cell-based
CNE-2 = assay: Cytotoxicity against human CNE2 cells assessed as reduction in cell viability after 3 days by MTT assay; format: functional, cell-based

Row | Compound | Activity (CNE) | Activity (CNE-2) | IC50 (CNE; 72 h) | IC50 (CNE-2; CNE-2, 72 h)
1 | CC(=O)O[C@@H]1C[C@@H](C)[C@](O)(CCc2ccn(CCO)c2C#N)[C@@]2(C)CCCC(C)(C)[C@H]12 | inactive | inactive |  | 
2 | CCOC(=O)CCCn1ccc(CC[C@@]2(O)[C@H](C)CC[C@H]3C(C)(C)CCC[C@@]32C)c1C#N | inactive | inactive |  | 
3 | C[C@@H]1CC[C@H]2C(C)(C)CCC[C@]2(C)[C@@]1(O)CCc1cc[nH]c1C#N |  |  | 8.7 µM | > 10 µM
4 | CC(=O)O[C@H]1CC[C@@]2(C)[C@@H](CC[C@@H](C)[C@]2(O)CCc2ccn(CCCC(=O)O)c2C#N)C1(C)C | inactive | inactive |  | 
